“And” between values parts separate entries of the source, which are not always exact repeats. Identical values can stand only once.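 Protocol summary: plate cells (96-well), add compound at 5 concentrations, incubate 48 h, interpolate endpoints linearly. GI50: concentration for 50% inhibition of growth. TGI denotes the concentration required for complete inhibition of growth.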
Key:
Assay in all cases: NCI anticancer screen, dose series, 48 h
A498 renal = test system: A498 renal
MOLT-4 leukemia = test system: MOLT-4 leukemia
OVCAR-8 ovarian = test system: OVCAR-8 ovarian
IGROV1 ovarian = test system: IGROV1 ovarian
HCC-2998 colon = test system: HCC-2998 colon
KM12 colon = test system: KM12 colon
K-562 leukemia = test system: K-562 leukemia
SNB-75 CNS = test system: SNB-75 CNS
HCT-15 colon = test system: HCT-15 colon

Row | SMILES | TGI (A498 renal) | TGI (MOLT-4 leukemia) | TGI (OVCAR-8 ovarian) | TGI (IGROV1 ovarian) | TGI (HCC-2998 colon) | TGI (KM12 colon) | TGI (K-562 leukemia) | TGI (SNB-75 CNS) | TGI (HCT-15 colon) | GI50 (A498 renal) [µM] | GI50 (MOLT-4 leukemia) [µM] | GI50 (OVCAR-8 ovarian) | GI50 (IGROV1 ovarian) | GI50 (HCC-2998 colon) | GI50 (KM12 colon) | GI50 (K-562 leukemia) [µM] | GI50 (SNB-75 CNS) | GI50 (HCT-15 colon)
1 | Cn1cnnc1Sc1c([N+](=O)[O-])nc(-c2ccc([N+](=O)[O-])cc2)n1C | > 100 µM | 31.8 µM | 33 µM | 33.4 µM | 31.8 µM | 41.2 µM | 53.2 µM | 87.5 µM |  |  |  |  |  |  |  |  |  | 
2 | CCCCn1c(-c2ccccc2)cs/c1=N\NC(=O)Cn1c(C)nc2ccccc21 | > 100 µM | 57.4 µM | > 100 µM | > 100 µM | > 100 µM | > 100 µM | > 100 µM | > 100 µM | > 100 µM |  |  |  |  |  |  |  |  | 
3 | O=C(O)C12C=CC(C1)c1ccccc12 (stereo unspecified) | > 100 µM | > 100 µM | > 100 µM | > 100 µM | > 100 µM |  | > 100 µM |  | > 100 µM |  |  |  |  |  |  |  |  | 
4 | C/C(=N/NC(N)=S)C(CN1CCOCC1)C(C1=C(O)c2ccccc2OC1)c1ccccc1 (stereo unspecified) | > 100 µM | > 100 µM | > 100 µM | > 100 µM | > 100 µM | > 100 µM | > 100 µM | > 100 µM |  |  |  |  |  |  |  |  |  | 
5 | N.N.N.N.O=S([O-])[O-].[Co+3].[N-]=[N+]=[N-] | > 100 µM | > 100 µM | > 100 µM | > 100 µM | > 100 µM | > 100 µM | > 100 µM | > 100 µM | > 100 µM | > 100 | > 100 | > 100 µM | > 100 µM | > 100 µM | > 100 µM | > 100 | 70.4 µM | > 100 µM
6 | O=C1C(=O)N(c2cc(Cl)ccc2Cl)C(=O)C(=O)C1c1nc2ccccc2s1 | > 100 µM |  | > 100 µM | > 100 µM |  | > 100 µM | > 100 µM | > 100 µM | > 100 µM |  |  |  |  |  |  |  |  | 
7 | O=C1c2ccccc2-c2c1c1ccccc1c(=O)n2CCNCCNCCNCCNCCn1c2c(c3ccccc3c1=O)C(=O)c1ccccc1-2 |  |  | 2.69 µM |  |  | 5.32 µM |  |  | 2.56 µM |  | < 0.0191 | 0.172 µM |  |  | 0.655 µM | 0.0462 |  | 0.568 µM
8 | CCOC(=O)NN1C(=O)C(=P(c2ccccc2)(c2ccccc2)c2ccccc2)C(C(=O)OC)=C1C | > 100 µM | > 100 µM | > 100 µM | > 100 µM | > 100 µM | > 100 µM | > 100 µM | > 100 µM | > 100 µM |  |  |  |  |  |  |  |  | 
9 | CNC(=O)NCCCCC(NC(C)=O)C(=O)NCc1ccccc1 (stereo unspecified) | > 100 µM | > 100 µM | > 100 µM | > 100 µM | > 100 µM | > 100 µM |  | > 100 µM | > 100 µM |  |  |  |  |  |  |  |  | 
10 | COC(OC)c1cccnc1C |  | > 100 µM | > 100 µM | > 100 µM |  | > 100 µM | > 100 µM | > 100 µM | > 100 µM |  |  |  |  |  |  |  |  | 
11 | O=C(Cc1nc2ccccc2s1)C(=O)Nc1cccc(C(F)(F)F)c1 | > 100 µM | > 100 µM | > 100 µM | > 100 µM | > 100 µM | > 100 µM |  | > 100 µM | > 100 µM |  |  |  |  |  |  |  |  | 
12 | C=C(c1ccccc1)c1cc2c(=O)[nH]ccc2n1C |  | > 100 µM | > 100 µM | > 100 µM | > 100 µM | > 100 µM | 46.3 µM | 45.6 µM | > 100 µM |  |  |  |  |  |  |  |  | 
13 | COc1cccc(C=NC23CC4CC(CC(C4)C2)C3)c1 | > 100 µM | > 100 µM | > 100 µM | > 100 µM | > 100 µM | > 100 µM | > 100 µM | > 100 µM | > 100 µM |  |  |  |  |  |  |  |  | 
14 | C[C@]12CC[C@H](OC(=O)Nc3ccccc3)CC1=CC[C@@H]1C2CC[C@]2(C)/C(=N/OC(=O)Nc3ccccc3)CCC12 (stereo partly specified) | > 100 µM | > 100 µM | > 100 µM | > 100 µM | > 100 µM | > 100 µM | > 100 µM | > 100 µM | 3.31 µM |  |  |  |  |  |  |  |  | 
15 | COc1ccc(OCC(=O)O)c2c1CCC(C)C2=O (stereo unspecified) | > 100 µM | > 100 µM | > 100 µM | > 100 µM | > 100 µM | > 100 µM | > 100 µM |  | > 100 µM |  |  |  |  |  |  |  |  | 
16 | COc1c2c(c(O)c3c4c(c(C)cc13)C1OC3(C(OC)OC5CC(C)(O)C(OC6CC(C)(O)C(O)C(C)O6)C(C)O5)OC1C(OC)(O4)C31CO1)C(=O)C(O)CC2OC1CC(C)(O)C(OC(C)=O)C(C)O1 (stereo unspecified) |  | 0.102 µM |  | 0.957 µM | < 0.01 µM | < 0.01 µM | 1.66 µM | < 0.01 µM | 1.58 µM |  |  |  |  |  |  |  |  | 
17 | O=C1N=C2N=C(c3ccc(Cl)cc3)N(c3ccc(Cl)cc3)N2Sc2ccccc21 | > 100 µM | > 100 µM | > 100 µM | > 100 µM | > 100 µM | > 100 µM | > 100 µM | > 100 µM | > 100 µM |  |  |  |  |  |  |  |  | 

Row | SMILES | TGI (A498 renal) | TGI (MOLT-4 leukemia) | TGI (OVCAR-8 ovarian) | TGI (IGROV1 ovarian) | TGI (HCC-2998 colon) | TGI (KM12 colon) | TGI (K-562 leukemia) | TGI (SNB-75 CNS) | TGI (HCT-15 colon) | GI50 (A498 renal) [µM] | GI50 (MOLT-4 leukemia) [µM] | GI50 (OVCAR-8 ovarian) | GI50 (IGROV1 ovarian) | GI50 (HCC-2998 colon) | GI50 (KM12 colon) | GI50 (K-562 leukemia) [µM] | GI50 (SNB-75 CNS) | GI50 (HCT-15 colon)
18 | O=C(NCCCN1CCN(CCCNC(=O)Nc2cc(Cl)ccc2Cl)CC1)Nc1cc(Cl)ccc1Cl |  | > 100 µM | > 100 µM | > 100 µM |  | > 100 µM | > 100 µM | 82 µM | > 100 µM |  |  |  |  |  |  |  |  | 
19 | C/C(=C\c1ccccc1)C(=O)c1c(C)cc(C)cc1C |  | > 100 µM | > 100 µM | > 100 µM |  | > 100 µM | > 100 µM | > 100 µM | > 100 µM |  |  |  |  |  |  |  |  | 
20 | Cc1nc(Nc2ccc(Cl)cc2)sc1C(=O)Nc1cccc2c(=O)[nH][nH]c(=O)c12 | 59.4 µM | 50.4 µM | > 100 µM | 83.5 µM | > 100 µM | > 100 µM | 47.3 µM | 83.4 µM | 71.3 µM |  |  |  |  |  |  |  |  | 
21 | Cc1c(-c2ccc(-c3ccccc3F)cc2)nc2ccc(F)cc2c1C(=O)O | 181 µM and 647 µM | 66.7 µM and 71.7 µM and 294 µM | 161 µM and 244 µM | 64.8 µM and 227 µM | 115 µM and 129 µM | 109 µM and 198 µM | 211 µM and 401 µM | 248 µM and 316 µM | 114 µM and 153 µM |  | 0.5 | 0.257 µM and 0.711 µM | 0.726 µM and 0.654 µM | 19.7 µM and 55.9 µM | 0.645 µM and 0.889 µM |  | 36.7 µM and 81.6 µM | 0.0764 µM and 0.5 µM
22 | CC(NC1CCCC[C@@H]1O)c1ccccc1 (stereo partly specified) |  | > 100 µM | > 100 µM | > 100 µM | > 100 µM | > 100 µM | > 100 µM | > 100 µM | > 100 µM |  |  |  |  |  |  |  |  | 
23 | Nc1ccc(C(=O)N/C(=C\c2ccc3c(c2)OCO3)c2nc3ccccc3s2)cc1 |  |  | 28.9 µM | 31.7 µM | 27.9 µM | 28 µM | 38 µM |  | 23.4 µM |  |  |  |  |  |  |  |  | 
24 | O=C(C#Cc1ccccc1)NC/C=C/c1ccccc1 | > 100 µM | > 100 µM | > 100 µM | > 100 µM | 99.2 µM | > 100 µM | > 100 µM | 45.8 µM | > 100 µM |  |  |  |  |  |  |  |  | 
25 | O=C(Nc1ccccc1)N1C(c2ccccc2)=N[C@@H](c2ccccc2)[C@@H]1c1ccccc1 | 35.8 µM | 44.5 µM | 45.6 µM | 53.4 µM | 35.2 µM | 34 µM | 50.9 µM | 53.5 µM | 60.4 µM |  |  |  |  |  |  |  |  | 
26 | CCOC(=N)CC(=O)Nc1ccccc1CC | > 100 µM | > 100 µM | > 100 µM | > 100 µM | > 100 µM | > 100 µM | > 100 µM | > 100 µM | > 100 µM |  |  |  |  |  |  |  |  | 
27 | COc1ccccc1/C=C(\NC(=O)c1ccccc1)c1nc2ccccc2[nH]1 | > 100 µM | > 100 µM | > 100 µM | > 100 µM |  | > 100 µM | > 100 µM | > 100 µM | > 100 µM |  |  |  |  |  |  |  |  | 
28 | Nc1ccccc1SC(/C=C/NNC1=NC(c2ccccc2)C(c2ccccc2)=NN1)c1ccccc1 (stereo unspecified) | 36.8 µM | 15.7 µM | 49 µM | 32.5 µM | 30.5 µM | 29.1 µM | 35.7 µM | 17.8 µM | 32 µM |  |  |  |  |  |  |  |  | 
29 | CN(C)C(=S)/N=c1\ssc(=Nc2ccccc2)n1-c1ccccc1 | > 100 µM | > 100 µM | 68.7 µM | > 100 µM | 68.9 µM |  | > 100 µM | 36.5 µM | > 100 µM |  |  |  |  |  |  |  |  | 
30 | NCCOCCOCC(=O)O |  | > 100 µM | > 100 µM | > 100 µM | > 100 µM | > 100 µM | > 100 µM | > 100 µM | > 100 µM |  |  |  |  |  |  |  |  | 
31 | Cc1cc(O)c2c(c1)OC1(C)CCC3C(C)(C)CCCC34COC2C14 (stereo unspecified) | 26 µM | 27.4 µM | 30.9 µM | 38.7 µM | 28.1 µM | 35.3 µM | 46.3 µM |  |  |  |  |  |  |  |  |  |  | 
32 | O=C(O)C1CC2C=CCC(C2)C1 (stereo unspecified) |  | > 100 µM | > 100 µM | > 100 µM |  | > 100 µM | > 100 µM | > 100 µM | > 100 µM |  |  |  |  |  |  |  |  | 
33 | COC(=O)CCC(NC(=S)N/N=C(\C)c1cccs1)C(=O)OC (stereo unspecified) | > 100 µM |  | > 100 µM | > 100 µM | > 100 µM | > 100 µM | > 100 µM | > 100 µM | > 100 µM |  |  |  |  |  |  |  |  | 
34 | COC(=O)C1=C(O)c2cc(OC)c(OC)c(OC)c2C(c2ccc3c(c2)OCO3)[C@@H]1C(=O)OC (stereo partly specified) | 19.2 µM | > 100 µM | > 100 µM | > 100 µM | 31.7 µM | > 100 µM | > 100 µM | > 100 µM | > 100 µM |  |  |  |  |  |  |  |  | 
